Data from ChEMBL document CHEMBL5143532, “Discovery of GCC5694A: A potent and selective sodium glucose co-transporter 2 inhibitor for the treatment of type 2 diabetes” (Bioorg Med Chem Lett, 2022).
Calls of active or inactive are those of the source. The rule behind the calls is not given here.

Assays:
[1] = Selectivity index, ratio of IC50 for human SGLT1 expressed in CHO cells to IC50 for human SGLT2 expressed in CHO cells; format: cell-based
[2] = Metabolic stability in mouse by LC-MS/MS analysis; format: ADME; conditions: read-out: Stability
[3] = biological target: T1, Sodium/glucose cotransporter 1 (Homo sapiens, UniProt P13866); experiment: Inhibition of human SGLT1 expressed in CHO cells by methyl-alpha-D-glucopyranoside assay; format: cell-based
T1 sequence (P13866 whole entry): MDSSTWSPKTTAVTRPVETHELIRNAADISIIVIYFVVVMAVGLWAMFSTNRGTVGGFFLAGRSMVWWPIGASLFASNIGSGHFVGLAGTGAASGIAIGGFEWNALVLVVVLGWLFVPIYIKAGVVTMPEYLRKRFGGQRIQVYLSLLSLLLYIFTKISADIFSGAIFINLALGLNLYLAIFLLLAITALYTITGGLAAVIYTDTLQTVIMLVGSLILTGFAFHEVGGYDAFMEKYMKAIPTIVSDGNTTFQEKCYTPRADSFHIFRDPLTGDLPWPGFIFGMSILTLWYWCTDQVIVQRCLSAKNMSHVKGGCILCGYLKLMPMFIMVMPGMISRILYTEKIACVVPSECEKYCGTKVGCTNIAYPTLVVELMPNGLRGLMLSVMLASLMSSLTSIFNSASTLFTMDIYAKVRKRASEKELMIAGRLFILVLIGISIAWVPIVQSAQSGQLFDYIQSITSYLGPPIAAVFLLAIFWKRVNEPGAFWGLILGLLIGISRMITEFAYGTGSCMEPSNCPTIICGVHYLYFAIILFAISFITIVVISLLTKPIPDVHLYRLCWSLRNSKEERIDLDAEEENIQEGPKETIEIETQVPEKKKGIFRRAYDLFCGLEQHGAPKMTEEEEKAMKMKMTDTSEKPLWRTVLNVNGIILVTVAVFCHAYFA

[4] = Cmax in Sprague-Dawley rat at 1 mg/kg, iv; format: ADME, organism-based; parameters: dose 1 mg/kg, route iv; conditions: in vivo
[5] = AUCinfinity in Sprague-Dawley rat at 5 mg/kg, po; format: ADME, organism-based; parameters: time infinity, dose 5 mg/kg, route po; conditions: in vivo
[6] = AUCinfinity in Sprague-Dawley rat at 1 mg/kg, iv; format: ADME, organism-based; parameters: time infinity, dose 1 mg/kg, route iv; conditions: in vivo
[7] = Oral bioavailability in Sprague-Dawley rat at 5 mg/kg; format: ADME, organism-based; conditions: in vivo
[8] = Terminal elimination half life in Sprague-Dawley rat at 1 mg/kg, iv; format: ADME, organism-based; conditions: in vivo, read-out: beta t1/2 (converted)
[9] = Tmax in Sprague-Dawley rat at 5 mg/kg, po; format: ADME, organism-based; conditions: in vivo
[10] = Tmax in Sprague-Dawley rat at 1 mg/kg, iv; format: ADME, organism-based; conditions: in vivo
[11] = Terminal elimination half life in Sprague-Dawley rat at 5 mg/kg, po; format: ADME, organism-based; conditions: in vivo, read-out: beta t1/2 (converted)
[12] = tested on: Mus musculus; experiment: Antidiabetic activity in type 2 diabetic db/db mouse assessed as decrease in hemoglobin A1c level at 0.05 to 0.5 mg/kg for 5 weeks; format: functional, organism-based; conditions: dose 0.05-0.5 mg/kg
[13] = tested on: Rattus norvegicus; experiment: Antidiabetic activity in STZ-induced rat model of type 1 diabetes assessed as decrease in hemoglobin A1c level at 0.05 to 0.5 mg/kg for 5 weeks; format: functional, organism-based; conditions: dose 0.05-0.5 mg/kg
[14] = tested on: Rattus norvegicus; experiment: Increase in urinary glucose excretion in oral-dosed normal Sprague-Dawley rat; format: functional, organism-based; conditions: Urine, dose 0.1-1 mg/kg
[15] = tested on: Rattus norvegicus; experiment: Antidiabetic activity in STZ-induced rat model of type 1 diabetes assessed as decrease in blood glucose level at 0.05 to 0.5 mg/kg for 5 weeks; format: functional, organism-based; conditions: dose 0.05-0.5 mg/kg
[16] = Cmax in Sprague-Dawley rat at 5 mg/kg, po; format: ADME, organism-based; parameters: dose 5 mg/kg, route po; conditions: in vivo
[17] = tested on: Mus musculus; experiment: Antidiabetic activity in type 2 diabetic db/db mouse assessed as decrease in blood glucose level at 0.05 to 0.5 mg/kg for 5 weeks; format: functional, organism-based; conditions: dose 0.05-0.5 mg/kg
[18] = biological target: T2, Sodium/glucose cotransporter 2 (Homo sapiens, UniProt P31639); experiment: Inhibition of human SGLT2 expressed in CHO cells by methyl-alpha-D-glucopyranoside assay; format: cell-based
T2 sequence (P31639 whole entry): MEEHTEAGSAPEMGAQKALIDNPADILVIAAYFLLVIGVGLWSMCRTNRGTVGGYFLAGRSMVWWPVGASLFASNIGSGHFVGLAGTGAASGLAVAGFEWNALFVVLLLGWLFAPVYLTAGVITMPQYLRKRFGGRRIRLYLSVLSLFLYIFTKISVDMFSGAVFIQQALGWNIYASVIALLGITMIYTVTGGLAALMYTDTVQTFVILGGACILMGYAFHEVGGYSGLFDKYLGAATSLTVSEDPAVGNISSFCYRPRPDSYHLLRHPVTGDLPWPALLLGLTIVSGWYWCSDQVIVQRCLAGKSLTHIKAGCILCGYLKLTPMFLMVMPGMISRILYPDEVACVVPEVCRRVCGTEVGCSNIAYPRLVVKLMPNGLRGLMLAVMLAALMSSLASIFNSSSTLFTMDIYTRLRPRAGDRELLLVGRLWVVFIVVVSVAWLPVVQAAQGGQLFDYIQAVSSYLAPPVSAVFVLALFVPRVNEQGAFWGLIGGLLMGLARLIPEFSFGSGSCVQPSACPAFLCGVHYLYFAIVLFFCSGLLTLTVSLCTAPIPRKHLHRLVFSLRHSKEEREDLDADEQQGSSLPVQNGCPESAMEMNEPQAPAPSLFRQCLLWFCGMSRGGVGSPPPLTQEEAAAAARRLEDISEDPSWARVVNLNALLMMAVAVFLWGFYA

Compound	Ratio IC50 [1]	half-life [2] [min]	IC50 [3] [nM]	other results
COc1ccc(Cc2cc([C@@H]3O[C@H](CO)[C@@H](O)[C@H](O)[C@H]3O)c3c(c2Cl)OCC3)cc1	261	> 120	400	–
C=Cc1ccc(Cc2cc([C@@H]3O[C@H](CO)[C@@H](O)[C@H](O)[C@H]3O)c3c(c2Cl)OCC3)cc1	441	57	–	–
COc1ccc(Cc2cc([C@@H]3O[C@H](CO)[C@@H](O)[C@H](O)[C@H]3O)c3c(c2Cl)CCO3)cc1	20	42.5	–	–
COc1ccc(Cc2cc([C@@H]3O[C@H](CO)[C@@H](O)[C@H](O)[C@H]3O)c3c(c2Br)CCC3)cc1	35	–	–	–
CC(C)c1ccc(Cc2cc([C@@H]3O[C@H](CO)[C@@H](O)[C@H](O)[C@H]3O)c3c(c2Cl)OCC3)cc1	–	–	4940	–
CCOc1ccc(Cc2cc([C@@H]3O[C@H](CO)[C@@H](O)[C@H](O)[C@H]3O)ccc2Cl)cc1 [DAPAGLIFLOZIN]	–	–	–	Cmax [4]: 1300 ng/mL; AUC(0-inf) [5]: 13300 ng·h/mL; AUC(0-inf) [6]: 3010 ng·h/mL; bioavailability [7]: 88.4%; half-life [8]: 174 min; Tmax [9]: 40.2 min; Tmax [10]: 4.8 min
CCc1ccc(Cc2cc([C@@H]3O[C@H](CO)[C@@H](O)[C@H](O)[C@H]3O)c3c(c2Cl)OCC3)cc1	772	44.5	556	–
CCCc1ccc(Cc2cc([C@@H]3O[C@H](CO)[C@@H](O)[C@H](O)[C@H]3O)c3c(c2Cl)OCC3)cc1	1170	–	1370	–
OC[C@H]1O[C@@H](c2cc(Cc3ccc(C4CC4)cc3)c(Cl)c3c2CCO3)[C@H](O)[C@@H](O)[C@@H]1O [ENAVOGLIFLOZIN]	780	103	359	half-life [11]: 294 min; Activity [12]: Active; Activity [13]: Active; Cmax [4]: 3300 ng/mL; Activity [14]: Active; AUC(0-inf) [5]: 16200 ng·h/mL; AUC(0-inf) [6]: 4180 ng·h/mL; Activity [15]: Active; bioavailability [7]: 77.4%; Cmax [16]: 2340 ng/mL; Activity [17]: Active; half-life [8]: 276 min; Tmax [9]: 15 min; Tmax [10]: 4.8 min
Cc1ccc(Cc2cc([C@@H]3O[C@H](CO)[C@@H](O)[C@H](O)[C@H]3O)c3c(c2Cl)OCC3)cc1	–	–	–	IC50 [18]: 1.44 nM
CCCOc1ccc(Cc2cc([C@@H]3O[C@H](CO)[C@@H](O)[C@H](O)[C@H]3O)c3c(c2Cl)OCC3)cc1	5150	–	6280	–
CCOc1ccc(Cc2cc([C@@H]3O[C@H](CO)[C@@H](O)[C@H](O)[C@H]3O)c3c(c2Cl)OCC3)cc1	1410	111	2140	–
COc1ccc(Cc2cc([C@@H]3O[C@H](CO)[C@@H](O)[C@H](O)[C@H]3O)c3c(c2Cl)CCC3)cc1	–	30.9	–	–
COc1ccc(Cc2cc([C@@H]3O[C@H](CO)[C@@H](O)[C@H](O)[C@H]3O)c3c(c2C)CCC3)cc1	–	20.3	–	–
OC[C@H]1O[C@@H](c2cc(Cc3ccc(C4CCCC4)cc3)c(Cl)c3c2CCO3)[C@H](O)[C@@H](O)[C@@H]1O	8560	–	9930	–
COc1ccc(Cc2cc([C@@H]3O[C@H](CO)[C@@H](O)[C@H](O)[C@H]3O)c3c(c2Cl)CCCO3)cc1	17	37.6	–	–
COc1ccc(Cc2cc3c(c([C@@H]4O[C@H](CO)[C@@H](O)[C@H](O)[C@H]4O)c2)CCC3)cc1	–	–	–	IC50 [18]: 7.44 nM
